SMILES strings stand for the structures. Counter-ions that a name gives are not always drawn. Where only a bound is given, the exact number is not on record here.

In assay [1] the target is purified human plasma kallikrein (Homo sapiens (Human), UniProt P03952). Put plainly: Plasma kallikrein enzyme inhibition assay (chromogenic substrate S-2302). In kind it is biochemical.
Assay [2] has as its target purified human Factor XIa (Homo sapiens (Human), UniProt P03951). The assay can be described thus: Factor XIa enzyme inhibition assay (chromogenic substrate S-2366). As to conditions: read-out: Factor XIa Ki; measured at 25° C.
[3] abbreviates: measured at 25° C. (no asterisk).
The mark [4] stands for this setting: measured at 25° C. (no asterisk), TFA salt.

Chain of purified human plasma kallikrein (P03952 391-638): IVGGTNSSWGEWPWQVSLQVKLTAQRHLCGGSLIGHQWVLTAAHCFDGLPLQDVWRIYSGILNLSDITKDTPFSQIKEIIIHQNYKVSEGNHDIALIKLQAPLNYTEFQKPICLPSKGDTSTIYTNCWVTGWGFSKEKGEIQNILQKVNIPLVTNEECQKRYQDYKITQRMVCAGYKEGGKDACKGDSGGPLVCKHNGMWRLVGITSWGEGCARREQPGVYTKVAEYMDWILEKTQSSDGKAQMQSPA
Chain of purified human plasma kallikrein (P03952 20-390 partner): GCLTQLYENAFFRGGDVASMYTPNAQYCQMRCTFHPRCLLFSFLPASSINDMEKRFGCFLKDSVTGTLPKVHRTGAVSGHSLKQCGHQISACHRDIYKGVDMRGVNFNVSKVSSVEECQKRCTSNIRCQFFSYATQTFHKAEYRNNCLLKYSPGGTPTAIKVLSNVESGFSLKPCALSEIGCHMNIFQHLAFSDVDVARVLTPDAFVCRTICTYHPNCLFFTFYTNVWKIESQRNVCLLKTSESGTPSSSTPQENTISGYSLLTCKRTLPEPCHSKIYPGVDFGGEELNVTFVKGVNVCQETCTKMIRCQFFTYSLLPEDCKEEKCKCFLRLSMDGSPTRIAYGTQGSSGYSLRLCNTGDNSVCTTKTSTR
Chain of purified human Factor XIa (P03951 388-625): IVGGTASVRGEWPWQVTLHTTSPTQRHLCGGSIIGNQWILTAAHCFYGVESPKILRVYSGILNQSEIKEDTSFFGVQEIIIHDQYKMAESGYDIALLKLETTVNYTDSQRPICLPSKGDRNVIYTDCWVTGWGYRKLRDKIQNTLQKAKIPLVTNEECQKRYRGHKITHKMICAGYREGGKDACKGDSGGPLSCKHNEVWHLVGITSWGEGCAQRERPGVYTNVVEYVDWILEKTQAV
Chain of purified human Factor XIa (P03951 19-387 partner): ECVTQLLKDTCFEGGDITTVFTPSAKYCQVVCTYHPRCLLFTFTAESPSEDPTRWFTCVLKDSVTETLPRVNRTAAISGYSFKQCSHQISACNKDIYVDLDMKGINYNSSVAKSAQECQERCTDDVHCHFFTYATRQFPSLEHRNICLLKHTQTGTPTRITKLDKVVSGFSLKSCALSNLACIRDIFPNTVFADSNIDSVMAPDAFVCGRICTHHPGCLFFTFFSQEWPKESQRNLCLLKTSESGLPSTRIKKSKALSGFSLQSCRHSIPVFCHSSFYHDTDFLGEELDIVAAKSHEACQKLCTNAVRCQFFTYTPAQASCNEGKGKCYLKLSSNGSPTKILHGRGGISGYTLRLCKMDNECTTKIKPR

For the compound `COC1CCN(c2cccc3c2CCN(C(=O)C2CC(c4cccc(Cl)c4F)=NO2)C3C(=O)Nc2ccc(C(=O)O)cc2)CC1` (single isomer, unassigned) [Example 305, 4-(2-(3-(3-chloro-2-fluorophenyl)-4,5-dihydroisoxazole-5-carbonyl)-5-(4-methoxypiperidin-1-yl)-1,2,3,4-tetrahydroisoquinoline-1-carboxamido)benzoic acid, TFA], affinity in assay [1] (measured at 25° C. (no asterisk), TFA) was put at a Ki of 31.7 nM. `O=C(O)c1ccc(NC(=O)[C@H]2c3cccc(N4CCCCC4)c3CCN2C(=O)[C@H]2CC(c3cccc(Cl)c3F)=NO2)cc1` [Example 292, 4-((R)-2-((R)-3-(3-chloro-2-fluorophenyl)-4,5-dihydroisoxazole-5-carbonyl)-5-(piperidin-1-yl)-1,2,3,4-tetrahydroisoquinoline-1-carboxamide)benzoic acid, TFA salt]: in assay [1] (setting [3]), the affinity, expressed as Ki, was 758 nM. On to `O=C(O)c1ccc(NC(=O)[C@@H]2c3cccc(N4CCC(C5COC5)CC4)c3CCN2C(=O)[C@H]2CC(c3cccc(Cl)c3F)=NO2)cc1` [Example 234, 4-((S)-2-((R)-3-(3-Chloro-2-fluorophenyl)-4,5-dihydroisoxazole-5-carbonyl)-5-(4-(oxetan-3-yl)piperidin-1-yl)-1,2,3,4-tetrahydroisoquinoline-1-carboxamido)benzoic acid, TFA salt], for which the inhibition constant (Ki) in assay [1] (measured at 37° C. (*)) is 26.9 nM.

With `O=C(O)c1ccc(NC(=O)C2c3cccc(N4CCOCC4)c3CCN2C(=O)[C@H]2CC(c3cccc(Cl)c3F)=NO2)cc1` (stereo in doubt) [Example 296, 4-((S)-2-((R)-3-(3-chloro-2-fluorophenyl)-4,5-dihydroisoxazole-5-carbonyl)-5-morpholino-1,2,3,4-tetrahydroisoquinoline-1-carboxamido)benzoic acid, TFA salt], the affinity in assay [1] (setting [3]), expressed as Ki, was 186 nM. For the compound `O=C(O)c1ccc(NC(=O)[C@@H]2c3cccc(-c4cncc(F)c4)c3CCN2C(=O)[C@H]2CC(c3cccc(Cl)c3F)=NO2)cc1` [Example 21, 4-((S)-2-((R)-3-(3-Chloro-2-fluorophenyl)-4,5-dihydroisoxazole-5-carbonyl)-5-(5-fluoropyridin-3-yl)-1,2,3,4-tetrahydroisoquinoline-1-carboxamido)benzoic acid, TFA salt], the affinity in assay [1] (measured at 37° C. (*)), expressed as Ki, was 9.6 nM. For `CC(C)c1nnc2n1CCN(c1cccc3c1CCN(C(=O)[C@@H]1CC(c4cccc(Cl)c4F)=NO1)[C@H]3C(=O)Nc1ccc(C(=O)O)cc1)C2` [Example 339, 4-((R)-2-((S)-3-(3-Chloro-2-fluorophenyl)-4,5-dihydroisoxazole-5-carbonyl)-5-(3-isopropyl-5,6-dihydro-[1,2,4]triazolo[4,3-a]pyrazin-7(8H)-yl)-1,2,3,4-tetrahydroisoquinoline-1-carboxamido)benzoic acid, TFA salt], in assay [1] (measured at 37° C. (*)), affinity was put at a Ki of 84.6 nM. `CNC(=O)c1ccc(-c2cccc3c2CCN(C(=O)[C@H]2CC(c4cccc(Cl)c4F)=NO2)[C@@H]3C(=O)Nc2ccc(C(=O)O)cc2)cn1` [Example 19, 4-((S)-2-((R)-3-(3-Chloro-2-fluorophenyl)-4,5-dihydroisoxazole-5-carbonyl)-5-(6-(methylcarbamoyl)pyridin-3-yl)-1,2,3,4-tetrahydroisoquinoline-1-carboxamido)benzoic acid, TFA salt] had an inhibitory constant (Ki) in assay [1] (setting [3]) of 1.51 nM. Same read-out and setting: then `COCCOc1cccc2c1CCN(C(=O)[C@H]1CC(c3cccc(Cl)c3F)=NO1)[C@@H]2C(=O)Nc1ccc(C(=O)O)cc1` [Example 114, 4-((S)-2-((R)-3-(3-Chloro-2-fluorophenyl)-4,5-dihydroisoxazole-5-carbonyl)-5-(2-methoxyethoxy)-1,2,3,4-tetrahydroisoquinoline-1-carboxamido)benzoic Acid], with 15.2 nM; and `O=C(O)c1ccc(NC(=O)[C@H]2c3ccccc3CCN2C(=O)[C@H]2CC(c3cccc(Cl)c3F)=NO2)cc1` [Example 5, 4-((R)-2-((R)-3-(3-Chloro-2-fluorophenyl)-4,5-dihydroisoxazole-5-carbonyl)-1,2,3,4-tetrahydroisoquinoline-1-carboxamido)benzoic acid], with 1380 nM. As to `O=C(O)c1ccc(NC(=O)[C@@H]2c3cccc(N4CCOCC4)c3CCN2C(=O)[C@H]2CC(c3cccc(Cl)c3F)=NO2)cc1` [Example 295, 4-((S)-2-((R)-3-(3-chloro-2-fluorophenyl)-4,5-dihydroisoxazole-5-carbonyl)-5-morpholino-1,2,3,4-tetrahydroisoquinoline-1-carboxamido)benzoic acid, TFA salt], the inhibition constant (Ki) in assay [1] (setting [3]) is 2.44 nM.

In the case of `COC1CCN(c2cccc3c2CCN(C(=O)C2CC(c4cccc(Cl)c4F)=NO2)C3C(=O)Nc2ccc(C(=O)O)cc2)CC1` (single isomer, unassigned) [Example 304, 4-(2-(3-(3-chloro-2-fluorophenyl)-4,5-dihydroisoxazole-5-carbonyl)-5-(4-methoxypiperidin-1-yl)-1,2,3,4-tetrahydroisoquinoline-1-carboxamido)benzoic acid, TFA salt], in assay [1] (setting [4]), the Ki came out at 232 nM. Turning to `COc1cccc2c1CCN(C(=O)[C@H]1CC(c3cccc(Cl)c3F)=NO1)[C@H]2C(=O)Nc1ccc(C(=O)O)cc1` [Example 294, 4-((R)-2-((R)-3-(3-chloro-2-fluorophenyl)-4,5-dihydroisoxazole-5-carbonyl)-5-methoxy-1,2,3,4-tetrahydroisoquinoline-1-carboxamido)benzoic acid], the Ki in assay [1] (setting [3]) was found to be 111 nM. In turn, `COc1cccc2c1CCN(C(=O)[C@H]1CC(c3cccc(Cl)c3F)=NO1)[C@@H]2C(=O)Nc1ccc(C(=O)O)cc1` [Example 293, 4-((S)-2-((R)-3-(3-chloro-2-fluorophenyl)-4,5-dihydroisoxazole-5-carbonyl)-5-methoxy-1,2,3,4-tetrahydroisoquinoline-1-carboxamide)benzoic acid] returned a Ki in assay [1] (setting [3]) of 3.24 nM. On to `COC1CCN(c2cccc3c2CCN(C(=O)C2CC(c4cccc(Cl)c4F)=NO2)C3C(=O)Nc2ccc(C(=O)O)cc2)CC1` (single isomer, unassigned) [Example 303, 4-(2-(3-(3-chloro-2-fluorophenyl)-4,5-dihydroisoxazole-5-carbonyl)-5-(4-methoxypiperidin-1-yl)-1,2,3,4-tetrahydroisoquinoline-1-carboxamido)benzoic acid, TFA salt], for which the Ki in assay [1] (setting [4]) was found to be 1960 nM. Regarding `O=C(O)c1ccc(NC(=O)[C@@H]2c3cccc(N4CCCCC4)c3CCN2C(=O)[C@H]2CC(c3cccc(Cl)c3F)=NO2)cc1` [Example 291, 4-((S)-2-((R)-3-(3-chloro-2-fluorophenyl)-4,5-dihydroisoxazole-5-carbonyl)-5-(piperidin-1-yl)-1,2,3,4-tetrahydroisoquinoline-1-carboxamido)benzoic acid, TFA salt], affinity in assay [1] (setting [3]) was put at a Ki of 15.2 nM. With `O=C(O)c1ccc(NC(=O)[C@H]2c3cccc(-n4cnnc4)c3CCN2C(=O)[C@H]2CC(c3cccc(Cl)c3F)=NO2)cc1` [Example 248, 4-((R)-2-((R)-3-(3-Chloro-2-fluorophenyl)-4,5-dihydroisoxazole-5-carbonyl)-5-(4H-1,2,4-triazol-4-yl)-1,2,3,4-tetrahydroisoquinoline-1-carboxamido)benzoic acid, TFA salt], the inhibition constant (Ki) in assay [1] (measured at 37° C. (*)) amounted to 83.2 nM. In turn, `O=C(O)c1ccc(NC(=O)[C@@H]2c3cccc(-n4cnnc4)c3CCN2C(=O)[C@H]2CC(c3cccc(Cl)c3F)=NO2)cc1` [Example 247, 4-((S)-2-((R)-3-(3-Chloro-2-fluorophenyl)-4,5-dihydroisoxazole-5-carbonyl)-5-(4H-1,2,4-triazol-4-yl)-1,2,3,4-tetrahydroisoquinoline-1-carboxamido)benzoic acid, TFA salt] yielded an inhibition constant (Ki) in assay [1] (measured at 37° C. (*)) of 9.2 nM. `COCCOc1cccc2c1CCN(C(=O)[C@H]1CC(c3cccc(Cl)c3F)=NO1)[C@H]2C(=O)Nc1ccc(C(=O)O)cc1` [Example 115, 4-((R)-2-((R)-3-(3-Chloro-2-fluorophenyl)-4,5-dihydroisoxazole-5-carbonyl)-5-(2-methoxyethoxy)-1,2,3,4-tetrahydroisoquinoline-1-carboxamido)benzoic acid] returned an inhibition constant (Ki) in assay [1] (setting [3]) of 61.3 nM. In assay [1] (setting [3]), `COC1CCN(c2cccc3c2CCN(C(=O)C2CCN(c4cccc(Cl)c4)C2=O)C3C(=O)Nc2ccc(C(=O)O)cc2)CC1` (centres unmarked) [Example 151, 4-(2-(1-(3-chlorophenyl)-2-oxopyrrolidine-3-carbonyl)-5-(4-methoxypiperidin-1-yl)-1,2,3,4-tetrahydroisoquinoline-1-carboxamido)benzoic acid, TFA salt] came in with a Ki of 816 nM. The compound `CC(C)c1nnc2n1CCN(c1cccc3c1CCN(C(=O)[C@@H]1CC(c4cccc(Cl)c4F)=NO1)[C@@H]3C(=O)Nc1ccc(C(=O)O)cc1)C2` [Example 338, 4-((S)-2-((S)-3-(3-Chloro-2-fluorophenyl)-4,5-dihydroisoxazole-5-carbonyl)-5-(3-isopropyl-5,6-dihydro-[1,2,4]triazolo[4,3-a]pyrazin-7(8H)-yl)-1,2,3,4-tetrahydroisoquinoline-1-carboxamido)benzoic acid, TFA salt] gave a Ki in assay [1] (measured at 37° C. (*)) of 251 nM. Take `CNC(=O)c1ccc(-c2cccc3c2CCN(C(=O)[C@H]2CC(c4cccc(Cl)c4F)=NO2)[C@H]3C(=O)Nc2ccc(C(=O)O)cc2)cn1` [Example 20, 4-((R)-2-((R)-3-(3-Chloro-2-fluorophenyl)-4,5-dihydroisoxazole-5-carbonyl)-5-(6-(methylcarbamoyl)pyridin-3-yl)-1,2,3,4-tetrahydroisoquinoline-1-carboxamido)benzoic acid, TFA salt]: in assay [1] (setting [3]), the Ki is 840 nM.

In assay [1] (setting [3]), `O=C(O)c1ccc(NC(=O)[C@@H]2c3ccccc3CCN2C(=O)[C@H]2CC(c3cccc(Cl)c3F)=NO2)cc1` [Example 4, 4-((S)-2-((R)-3-(3-Chloro-2-fluorophenyl)-4,5-dihydroisoxazole-5-carbonyl)-1,2,3,4-tetrahydroisoquinoline-1-carboxamido)benzoic acid] registered a Ki of 6.38 nM. Turning to `Nc1cc(-c2cccc3c2CCN(C(=O)c2cn(-c4cccc(Cl)c4F)nn2)C3C(=O)Nc2ccc(C(=O)O)cc2)ccn1` (centres unmarked) [Example 38, 4-(5-(2-aminopyridin-4-yl)-2-(1-(3-chloro-2-fluorophenyl)-1H-1,2,3-triazole-4-carbonyl)-1,2,3,4-tetrahydroisoquinoline-1-carboxamido)benzoic acid, bis-TFA salt], the inhibitory constant (Ki) in assay [2] was under 5 nM.
